Test results as given in PubChem BioAssay (NCI).
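Interpolation was linear, between the two tested concentrations surrounding the appropriate level; five concentrations were tested over 48 hours in 96-well plates. Definition used: TGI = concentration required for complete inhibition of growth.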

Experiments:
Assay in all cases: NCI tumour cell line growth inhibition, 48 h
COLO 205 colon = system: COLO 205 colon
RXF 393 renal = system: RXF 393 renal
TK-10 renal = system: TK-10 renal
PC-3 prostate = system: PC-3 prostate
SW-620 colon = system: SW-620 colon
UACC-257 melanoma = system: UACC-257 melanoma
HCT-15 colon = system: HCT-15 colon
SK-MEL-2 melanoma = system: SK-MEL-2 melanoma
NCI/ADR-RES ovarian = system: NCI/ADR-RES ovarian
UACC-62 melanoma = system: UACC-62 melanoma
MCF7 breast = system: MCF7 breast
NCI-H226 lung = system: NCI-H226 lung
SK-MEL-5 melanoma = system: SK-MEL-5 melanoma
CCRF-CEM leukemia = system: CCRF-CEM leukemia
DU-145 prostate = system: DU-145 prostate

Structure (SMILES) | TGI (COLO 205 colon) | TGI (RXF 393 renal) | TGI (TK-10 renal) | TGI (PC-3 prostate) | TGI (SW-620 colon) | TGI (UACC-257 melanoma) | TGI (HCT-15 colon) | TGI (SK-MEL-2 melanoma) | TGI (NCI/ADR-RES ovarian) | TGI (UACC-62 melanoma) | TGI (MCF7 breast) | TGI (NCI-H226 lung) | TGI (SK-MEL-5 melanoma) | TGI (CCRF-CEM leukemia) | TGI (DU-145 prostate)
COc1cc(/C=C2\CC3C4CC[C@H]5C[C@@H](O)CC[C@]5(C)C4CC[C@]3(C)C2=O)cc(OC)c1OC (stereo not given in full) | 26.1 µM | > 100 µM | > 100 µM | > 100 µM | > 100 µM | > 100 µM | > 100 µM | 33.7 µM | > 100 µM | 44.9 µM | 28.6 µM | 86.1 µM | 22 µM | > 100 µM | > 100 µM
Cc1ccc(CCCCCOc2ccc(C3=NCCO3)cc2)s1 | > 100 µM | > 100 µM | > 100 µM | > 100 µM | > 100 µM | > 100 µM | > 100 µM | > 100 µM | > 100 µM | > 100 µM | > 100 µM | > 100 µM | > 100 µM | > 100 µM | > 100 µM
CN(C)/C=C/c1ccncc1 | > 100 µM | > 100 µM | > 100 µM | > 100 µM | > 100 µM | > 100 µM | > 100 µM | > 100 µM | > 100 µM | > 100 µM | > 100 µM | > 100 µM | > 100 µM | > 100 µM | > 100 µM
O=C1c2ccccc2-c2c1c(-c1ccccc1)c1n2C2(C(=O)c3ccccc3C2=O)C2C(=O)N(c3ccccc3)C(=O)C12 (stereo not given) | 50.7 µM | 41.5 µM | > 100 µM | 81.6 µM | > 100 µM | > 100 µM | 42.8 µM | 51.4 µM | > 100 µM | 49 µM | 73.4 µM | 43.5 µM | 35.3 µM | 60 µM | > 100 µM
Nc1cccc(C#Cc2cccc(C#Cc3cccc(N)n3)n2)n1 | > 100 µM | > 100 µM | > 100 µM | > 100 µM | > 100 µM | > 100 µM | > 100 µM | > 100 µM | > 100 µM | > 100 µM | > 100 µM | > 100 µM | > 100 µM | 31.4 µM | > 100 µM
CC1=NN(C(=O)c2ccccc2O)C(c2ccccc2Cl)C1C(=O)Nc1ccccc1 (stereo not given) | > 100 µM | > 100 µM | > 100 µM | > 100 µM | > 100 µM | > 100 µM | > 100 µM | > 100 µM | > 49.5 µM | > 51.2 µM | > 100 µM | 8.02 µM | 30.5 µM | 0.245 µM | > 43.5 µM
C1=NCCNCCN=Cc2ccccc2OCc2cccc(n2)COc2ccccc21 | > 100 µM | > 100 µM | > 75.6 µM | > 95.3 µM | > 75.9 µM | > 100 µM | 24.8 µM | 99.8 µM | 21.1 µM | > 64.3 µM | > 56.9 µM | > 75.7 µM | > 49.5 µM | > 34.3 µM | > 100 µM
O=C(OC(/C=C/c1ccccc1)P1(=O)N(Cc2ccccc2)[C@@H]2CCCC[C@H]2N1Cc1ccccc1)c1ccccc1 (stereo not given in full) | 4.75 µM | > 100 µM | > 100 µM | > 100 µM | > 100 µM | > 54.7 µM | > 100 µM | 5.67 µM | > 100 µM | > 100 µM | > 100 µM | > 100 µM | 11.4 µM | 7.88 µM | > 100 µM
CC(C)(C)[Si](C)(C)OCC#C[C@@]1(O)CCCCC1CC(Sc1ccccc1)Sc1ccccc1 (stereo not given in full) | 31.6 µM | 27.1 µM | 31.8 µM | 26.3 µM | 31.7 µM | 29.5 µM | 34.5 µM | 31.7 µM | 39 µM | 26.7 µM | 24.7 µM | 34.8 µM | 29.2 µM | 39.5 µM | 29.8 µM
CCCCCCCCCC1CC(=O)NCC(=O)NC(C(C)C)C(=O)NC(CC(C)C)C(=O)NC(C)C(=O)NC(C(C)C)C(=O)O1 (stereo not given) | > 100 µM | > 94.9 µM | 68.9 µM | 22.4 µM | > 33.6 µM | > 88 µM | > 100 µM | > 65.8 µM | > 100 µM | 83.7 µM | > 100 µM | > 69.1 µM | > 61.6 µM | > 56.4 µM | > 74.9 µM
COC(=O)CC1(O)C(/C=C/c2ccccc2)C(C(=O)OC)C(=O)C(C(=O)OC)C1C(=O)OC (stereo not given) | > 100 µM | > 100 µM | > 100 µM | > 100 µM | > 100 µM | > 100 µM | > 100 µM | > 100 µM | > 100 µM | > 100 µM | > 100 µM | > 100 µM | > 100 µM | > 100 µM | > 100 µM
C/C1=C\CC/C(C)=C/C=C(/C(C)C)CC/C(C(=O)O)=C/CC1 | 43.2 µM | > 100 µM | > 100 µM | > 100 µM | > 100 µM | > 100 µM | > 100 µM | 62.2 µM | > 100 µM | > 100 µM | > 100 µM | > 100 µM | > 100 µM | > 100 µM | > 100 µM
Cc1ccc(/C(O)=C/c2nc3ccccc3[nH]c2=O)c(C)c1 | > 100 µM | > 49.2 µM | 21.1 µM | > 61.5 µM | > 100 µM | > 75.9 µM | > 100 µM | > 80.4 µM | 55.6 µM | 43.7 µM | > 100 µM | 37 µM | > 92.1 µM | > 100 µM | > 70.5 µM
CCOC(=O)c1nc2ccccc2nc1Oc1ccc(OC)cc1 | > 100 µM | > 100 µM | > 100 µM | > 100 µM | > 100 µM | > 100 µM | > 100 µM | > 100 µM | > 100 µM | > 100 µM | > 100 µM | > 100 µM | > 100 µM | > 100 µM | > 100 µM
OC(C/C(=N\N=C(/CC(O)(C(F)(F)F)C(F)(F)F)c1ccccc1)c1ccccc1)(C(F)(F)F)C(F)(F)F | > 10 µM | > 10 µM | > 10 µM | > 10 µM | > 10 µM | > 10 µM | > 10 µM | > 10 µM | > 10 µM | > 10 µM | > 10 µM | > 10 µM | > 10 µM | > 10 µM | > 10 µM
CC(=O)N1C2=CCCC2(C)c2ccccc21 (stereo not given) | > 100 µM | > 100 µM | > 100 µM | > 100 µM | > 100 µM | > 100 µM | > 100 µM | > 100 µM | > 100 µM | > 100 µM | > 100 µM | > 100 µM | > 100 µM | > 100 µM | > 100 µM
